Reference: paper PMC8086144, “A novel peptide antagonist of the human growth hormone receptor” (The Journal of Biological Chemistry, 2021)

What was measured:
mouse GHR = biological target: T1, mouse GHR (Mus musculus, UniProt P16882); test: hGH-mediated pSTAT5 in L (mouse fibroblast) cells, Western blot; type: cell-based; conditions: 200 nM S1H with 2.5 nM hGH, 20 min, Western blot densitometry, n = 3
T1 construct: the mouse L fibroblasts express high levels of mouse GHR; host or cells: mouse L fibroblasts
T1 sequence (P16882 25-650): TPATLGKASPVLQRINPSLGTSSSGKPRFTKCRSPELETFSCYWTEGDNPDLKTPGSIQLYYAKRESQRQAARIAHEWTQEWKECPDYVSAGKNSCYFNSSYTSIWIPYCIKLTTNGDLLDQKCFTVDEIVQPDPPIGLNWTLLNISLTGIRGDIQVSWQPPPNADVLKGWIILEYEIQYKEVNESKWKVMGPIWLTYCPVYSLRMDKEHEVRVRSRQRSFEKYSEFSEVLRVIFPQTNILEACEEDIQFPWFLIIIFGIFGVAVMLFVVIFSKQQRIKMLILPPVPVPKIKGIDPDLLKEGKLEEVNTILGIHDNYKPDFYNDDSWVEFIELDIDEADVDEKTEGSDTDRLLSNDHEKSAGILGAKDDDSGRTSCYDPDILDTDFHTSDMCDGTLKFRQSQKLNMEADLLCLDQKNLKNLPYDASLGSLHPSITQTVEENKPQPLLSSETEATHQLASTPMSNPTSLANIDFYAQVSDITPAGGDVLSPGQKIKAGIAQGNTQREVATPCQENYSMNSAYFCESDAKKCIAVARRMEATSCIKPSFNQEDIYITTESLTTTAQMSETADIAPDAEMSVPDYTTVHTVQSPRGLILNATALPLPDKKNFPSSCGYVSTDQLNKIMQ
Method: (§1) SK-MEL-28, MALME-3M, and T84 cells were grown and maintained in Eagle's Minimal Essential Medium. IM9 and L cells were grown in RPMI-1640 media and Dulbecco's modified Eagle's medium, respectively. All growth media was supplemented with 10% fetal bovine serum and 1× antibiotic-antimycotic […] solution. Cells were grown at 37 °C under a 5% CO2 atmosphere in a humidified incubator, and growth media was replaced every 48 h during incubation. No hGH was present in or added to the growth media unless specifically indicated. […]
(§2) Following treatment, the cells were harvested at the indicated time points, and the total protein was extracted. […] Sample protein concentration was quantified using a Bradford assay with bovine serum albumin as the protein standard. Absorbance at 595 nm was measured using a Spectramax 250 multimode plate reader (Molecular Devices) and processed using SoftmaxPro v4.7.1 software.
(§3) Cytosolic fractions from treated cells were thawed on ice, and 80 μg protein was loaded onto polyacrylamide gels for separation by SDS-PAGE. […] Chemiluminescence signals were detected using a GelDoc (BioRad) fluorescence imager. […] Percent inhibition was then measured by subtracting the pSTAT5 band intensity in each lane from the pSTAT5 band intensity of hGH-treated samples. […]

hGHR = biological target: T2, hGHR (Homo sapiens, UniProt P10912); test: hGH-mediated pSTAT5 in MALME-3M cells, Western blot; type: cell-based; conditions: 20 min
T2 construct: previously reported to express high levels of endogenous hGHR; host or cells: SK-MEL-28, MALME-3M, IM9
T2 sequence (P10912 19-638): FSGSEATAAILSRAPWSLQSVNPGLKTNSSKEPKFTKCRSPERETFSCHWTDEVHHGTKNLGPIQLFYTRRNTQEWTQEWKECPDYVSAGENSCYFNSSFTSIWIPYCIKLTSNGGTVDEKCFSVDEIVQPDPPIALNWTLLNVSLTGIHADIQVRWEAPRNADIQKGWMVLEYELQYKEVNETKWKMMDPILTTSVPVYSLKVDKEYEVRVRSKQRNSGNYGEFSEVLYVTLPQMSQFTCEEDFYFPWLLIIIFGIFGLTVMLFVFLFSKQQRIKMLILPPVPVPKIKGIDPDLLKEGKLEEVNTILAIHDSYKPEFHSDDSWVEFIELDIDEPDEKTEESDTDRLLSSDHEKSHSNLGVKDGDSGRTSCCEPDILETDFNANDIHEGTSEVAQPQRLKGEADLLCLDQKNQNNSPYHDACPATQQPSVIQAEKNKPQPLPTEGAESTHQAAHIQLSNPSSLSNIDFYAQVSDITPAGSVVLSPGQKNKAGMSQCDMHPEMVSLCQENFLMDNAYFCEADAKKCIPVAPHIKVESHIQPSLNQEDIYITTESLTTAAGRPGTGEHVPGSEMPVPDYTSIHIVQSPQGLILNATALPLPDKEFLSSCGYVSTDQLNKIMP
Method: as §1, §2, §3

suppression of hGH-mediated pSTAT5 (mouse GHR): 36%
inhibition at 0.05 µM (hGHR; 50 nM inhibitor with 2.5 nM hGH, Western blot, compared with hGH alone, read-out: inhibition of hGH-induced pSTAT5): 40%
suppression of hGH-mediated pSTAT5 (hGHR; 200 nM S1H with 2.5 nM hGH, Western blot densitometry, n = 3): 56%
Compound: CC[C@H](C)[C@H](NC(=O)[C@H](Cc1ccc(O)cc1)NC(C)=O)C(=O)N1CCC[C@H]1C(=O)N[C@@H](CCCCN)C(=O)N[C@@H](CCC(=O)O)C(=O)N[C@@H](CCC(N)=O)C(=O)N[C@@H](CCCCN)C(=O)N[C@@H](Cc1ccc(O)cc1)C(=O)N[C@@H](CO)C(=O)N[C@@H](Cc1ccccc1)C(=O)N[C@@H](CC(C)C)C(=O)N[C@@H](CCC(N)=O)C(=O)N[C@@H](CC(N)=O)C(=O)N1CCC[C@H]1C(=O)N[C@@H](CCC(N)=O)C(=O)N[C@H](C(N)=O)[C@@H](C)O [S1H]
